{
  "source": "paper PMC9282638",
  "about": "“A Suite of Activity-Based Probes To Dissect the KLK Activome in Drug-Resistant Prostate Cancer” (Journal of the American Chemical Society, 2021)",
  "type_in_all_cases": "biochemical",
  "key": {"KLK3": {"target": "T1, KLK3 (Homo sapiens, UniProt P07288)", "T1 construct": "endogenous in cells; host or cells: LNCaP cells treated with 10 nM DHT; conditioned medium", "T1 sequence (P07288 25-261)": "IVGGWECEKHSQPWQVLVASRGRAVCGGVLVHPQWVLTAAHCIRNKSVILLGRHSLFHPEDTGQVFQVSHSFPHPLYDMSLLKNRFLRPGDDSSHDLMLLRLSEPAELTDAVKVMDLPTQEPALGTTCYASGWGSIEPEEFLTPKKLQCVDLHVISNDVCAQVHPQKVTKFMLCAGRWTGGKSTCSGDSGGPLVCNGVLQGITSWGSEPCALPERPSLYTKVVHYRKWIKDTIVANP", "test": "Probe labeling of KLK3 in LNCaP conditioned media (in-gel fluorescence / streptavidin blot)", "details": "LNCaP CM, 1 h treatment", "from_the_text": "An optimized tetrapeptide designed to occupy the KLK S1–S4 subsites was envisaged for the ABP specificity element, grafted onto a peptidyl-diphenyl phosphonate (DPP) warhead which reacts specifically and exclusively with the Ser195 residue in the KLK3 active site.[21] […] We therefore replaced the boronic acid in 2 with the DPP moiety in 1 and capped the N-terminus with a tetramethyl rhodamine (TAMRA) fluorophore to afford 3, which served as a prototype ABP for KLK3. A mixed solid-phase and solution-phase approach was used for the synthesis of peptidyl-DPP compounds, as described previously (Figures S1 and S2).[24] […]\nDespite exquisite selectivity, maximal KLK3 labeling was achieved only after treatment with 20 μM 3 for 1 h. We therefore optimized probe potency by systematically modifying each amino acid side chain in the P1–P4 positions of a morpholine-capped peptidyl-DPP inhibitor scaffold and determined the potency of each analogue using competitive-ABPP against 3.[25],[26] […] Second generation biotinylated 20 and fluorescent 21 ABPs (Figures 2G and S7) based on this scaffold retained exquisite selectivity for KLK3 in LNCaP CM, but in contrast to first-generation ABP 3 achieved maximum labeling at only 1 μM and readily detectable labeling down to 130 nM (Figures 2H and S7). […]"}, "KLK2": {"target": "T2, KLK2 (Homo sapiens, UniProt P20151)", "T2 construct": "purchased R&D Systems", "T2 sequence (P20151 25-261)": "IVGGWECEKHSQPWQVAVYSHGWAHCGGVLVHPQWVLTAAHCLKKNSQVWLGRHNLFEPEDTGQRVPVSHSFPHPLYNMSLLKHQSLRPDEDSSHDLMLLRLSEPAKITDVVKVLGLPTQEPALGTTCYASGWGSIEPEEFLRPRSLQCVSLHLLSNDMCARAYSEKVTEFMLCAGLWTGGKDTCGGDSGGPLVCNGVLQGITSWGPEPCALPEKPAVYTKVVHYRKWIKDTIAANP", "test": "Inhibition of KLK2 after incubation with 50 µM probe (Figure S8)", "details": "30 minutes", "experimental": "Table S1: Antibodies used throughout this project\nProtein Supplier Cat. No. Host /clonal Immunogen\nKLK2 Abcam Ab124899 Rabbit Mono Synthetic peptide within amino […]\nKLK3 SCBT sc-7316 Mouse Mono Full length KLK3 of human origin\nKLK14 Abcam Ab128957 Rabbit Mono Synthetic peptide within the C- […]\nTransferrin Abcam Ab66952 Rabbit Poly Full length Transferrin of human […]\nHSP90 SCBT sc-69703 Mouse Mono Full length HSP90 of human\nIn gel-fluorescence: LNCaP conditioned media (50 µg) was treated with a fluorescent activity-based probe for 1 h. After 1 h, proteins were precipitated using the aforementioned procedure and resuspended in a 3:1 ratio of PBS and sample loading buffer to a concentration of 1 mg/mL. After boiling for 5 min, 10 µL of sample was loaded on to a hand cast 12 % Bis-Tris gel and proteins were separated by SDS-PAGE as described above. Gels were then scanned for fluorescence at the appropriate wavelength.\nImmunoprecipitation: LNCaP conditioned media (100 µg) was treated with the appropriate ABP for 1h. Proteins were precipitated using the CHCl3/MeOH procedure outlined above and resuspended in RIPA buffer (20 mM Tris, 150 mM NaCl, 1 mM EDTA, 1mM EGTA, 1 % NP-40, 1 % sodium deoxycholate, 2.5 mM sodium pyrophosphate, 1 mM glycerophosphate, 1 mM Na3VO4 pH 7.5) to a concentration of 1 mg/mL. […]"}, "KLK14": {"target": "T3, KLK14 (Homo sapiens, UniProt Q9P0G3)", "T3 construct": "purchased R&D Systems", "T3 sequence (Q9P0G3 25-251)": "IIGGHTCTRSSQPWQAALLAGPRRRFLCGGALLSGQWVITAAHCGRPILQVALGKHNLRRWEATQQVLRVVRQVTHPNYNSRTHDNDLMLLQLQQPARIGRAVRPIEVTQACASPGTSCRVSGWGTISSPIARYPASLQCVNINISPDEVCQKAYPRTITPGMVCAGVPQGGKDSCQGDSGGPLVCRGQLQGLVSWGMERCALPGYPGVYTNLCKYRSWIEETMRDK", "test": "Inhibition of KLK14 after incubation with 50 µM probe (Figure S8)", "details": "30 minutes"}},
  "data": [
    {"molecule": "CCC[C@H](NC(=O)[C@H](CCC(N)=O)NC(=O)[C@H](CC(N)=O)NC(=O)CCCCCNC(=O)CCCC[C@@H]1SC[C@@H]2NC(=O)N[C@@H]21)C(=O)NC(c1ccc(C(N)=O)cc1)P(=O)(Oc1ccccc1)Oc1ccccc1", "note": "(stereo partly shown) [compound 20]", "values": [
      {"measurement": "concentration at which maximal KLK3 labeling was achieved", "setting": "KLK3", "result": 1, "unit": "µM"},
      {"measurement": "lowest concentration with readily detectable KLK3 labeling", "setting": "KLK3", "result": 130, "unit": "nM"},
      {"measurement": "inhibition of KLK2", "setting": "KLK2", "result": "no inhibition"},
      {"measurement": "inhibition of KLK14", "setting": "KLK14", "result": "no inhibition"}
    ]}
  ]
}
